{"source": "ChEMBL document CHEMBL1201862", "about": "“PubChem BioAssay data set” (2004)", "key": {"Phospholipase D2": {"biological_target": "Phospholipase D2 (Homo sapiens, UniProt O14939)", "sequence (O14939 whole entry)": "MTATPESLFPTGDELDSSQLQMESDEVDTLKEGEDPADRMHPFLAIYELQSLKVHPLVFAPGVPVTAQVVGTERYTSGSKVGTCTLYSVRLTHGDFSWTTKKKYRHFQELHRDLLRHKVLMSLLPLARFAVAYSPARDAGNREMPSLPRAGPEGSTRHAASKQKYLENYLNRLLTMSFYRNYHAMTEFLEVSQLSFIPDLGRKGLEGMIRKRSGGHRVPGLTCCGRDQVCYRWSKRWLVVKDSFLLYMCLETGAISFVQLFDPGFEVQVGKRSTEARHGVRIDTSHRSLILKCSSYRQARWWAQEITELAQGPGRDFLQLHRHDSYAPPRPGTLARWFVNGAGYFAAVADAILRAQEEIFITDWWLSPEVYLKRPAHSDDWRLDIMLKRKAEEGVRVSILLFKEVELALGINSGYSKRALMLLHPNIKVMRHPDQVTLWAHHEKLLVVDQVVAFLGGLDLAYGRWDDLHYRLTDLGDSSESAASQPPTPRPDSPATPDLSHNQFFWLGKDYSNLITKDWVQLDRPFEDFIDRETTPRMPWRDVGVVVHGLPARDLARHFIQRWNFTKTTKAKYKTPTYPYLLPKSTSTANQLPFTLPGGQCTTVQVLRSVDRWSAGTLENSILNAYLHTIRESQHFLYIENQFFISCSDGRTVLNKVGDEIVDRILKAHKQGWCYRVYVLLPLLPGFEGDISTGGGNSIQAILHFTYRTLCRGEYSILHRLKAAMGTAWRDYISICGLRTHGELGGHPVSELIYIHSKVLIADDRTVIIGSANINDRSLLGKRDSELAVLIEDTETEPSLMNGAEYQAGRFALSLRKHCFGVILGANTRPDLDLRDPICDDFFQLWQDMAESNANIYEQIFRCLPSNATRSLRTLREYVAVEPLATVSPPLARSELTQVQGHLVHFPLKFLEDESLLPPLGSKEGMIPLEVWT", "experiment": "PLD2 inhibitor potency in cells, dose response (AID 602147);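 note: cellular assay in HEK293 cells overexpressing GFP-tagged PLD2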", "assay_type": "functional"}, "[1]": {"biological_target": "Lysine-specific demethylase 4C (Homo sapiens, UniProt Q9H3R0)", "sequence (Q9H3R0 whole entry)": "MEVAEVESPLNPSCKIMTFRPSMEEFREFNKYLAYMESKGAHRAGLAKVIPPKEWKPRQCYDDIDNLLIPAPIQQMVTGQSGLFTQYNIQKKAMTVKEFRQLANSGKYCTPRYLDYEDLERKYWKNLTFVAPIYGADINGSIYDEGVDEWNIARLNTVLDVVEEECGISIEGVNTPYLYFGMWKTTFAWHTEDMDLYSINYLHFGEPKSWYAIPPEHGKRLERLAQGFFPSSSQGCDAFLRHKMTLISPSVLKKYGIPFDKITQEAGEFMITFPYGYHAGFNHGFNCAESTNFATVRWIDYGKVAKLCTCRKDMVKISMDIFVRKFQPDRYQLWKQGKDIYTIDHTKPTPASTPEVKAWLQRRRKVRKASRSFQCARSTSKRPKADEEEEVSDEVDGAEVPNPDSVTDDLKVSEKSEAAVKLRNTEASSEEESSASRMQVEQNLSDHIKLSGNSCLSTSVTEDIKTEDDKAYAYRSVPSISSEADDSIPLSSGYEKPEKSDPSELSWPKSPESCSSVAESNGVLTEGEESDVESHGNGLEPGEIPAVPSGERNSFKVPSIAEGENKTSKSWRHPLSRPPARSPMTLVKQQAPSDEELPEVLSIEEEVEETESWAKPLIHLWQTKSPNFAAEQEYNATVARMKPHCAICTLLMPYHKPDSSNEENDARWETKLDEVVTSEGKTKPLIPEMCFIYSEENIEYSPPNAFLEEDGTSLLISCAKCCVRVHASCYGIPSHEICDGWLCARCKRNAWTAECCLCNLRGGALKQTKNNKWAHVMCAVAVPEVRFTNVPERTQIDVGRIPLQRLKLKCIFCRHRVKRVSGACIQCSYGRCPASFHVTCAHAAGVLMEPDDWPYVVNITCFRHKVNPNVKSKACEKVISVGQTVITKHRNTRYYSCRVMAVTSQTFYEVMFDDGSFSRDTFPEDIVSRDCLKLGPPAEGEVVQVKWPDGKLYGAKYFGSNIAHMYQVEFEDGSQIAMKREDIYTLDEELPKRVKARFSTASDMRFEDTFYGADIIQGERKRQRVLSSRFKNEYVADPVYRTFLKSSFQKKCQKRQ", "experiment": "GASC-1 (JMJD2C) histone demethylase inhibitors, dose response, biochemical, DELFIA europium, cherry-picked samples (AID 488835)", "assay_type": "functional"}, "[2]": {"biological_target": "T1, Intestinal-type alkaline phosphatase (Homo sapiens, UniProt P09923)", "T1 sequence (P09923 whole entry)": "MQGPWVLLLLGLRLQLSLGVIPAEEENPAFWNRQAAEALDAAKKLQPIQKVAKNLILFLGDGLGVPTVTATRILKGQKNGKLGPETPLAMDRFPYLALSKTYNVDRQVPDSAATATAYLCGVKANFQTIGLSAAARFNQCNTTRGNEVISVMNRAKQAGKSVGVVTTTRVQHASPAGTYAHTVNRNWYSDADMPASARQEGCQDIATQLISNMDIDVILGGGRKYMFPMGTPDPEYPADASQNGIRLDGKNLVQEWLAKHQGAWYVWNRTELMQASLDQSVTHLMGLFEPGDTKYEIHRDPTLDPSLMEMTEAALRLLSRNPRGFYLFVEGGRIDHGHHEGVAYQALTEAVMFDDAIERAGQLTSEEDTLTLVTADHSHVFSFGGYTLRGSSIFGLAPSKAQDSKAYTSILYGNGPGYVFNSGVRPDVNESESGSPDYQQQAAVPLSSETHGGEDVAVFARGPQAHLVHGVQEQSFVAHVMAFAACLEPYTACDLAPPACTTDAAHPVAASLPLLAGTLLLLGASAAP", "experiment": "human intestinal alkaline phosphatase activators, dose response, biochemical, luminescence, uHTS hits (AID 463120)", "assay_type": "functional"}, "[3]": {"biological_target": "T2, Alkaline phosphatase, tissue-nonspecific isozyme (Homo sapiens, UniProt P05186)", "T2 sequence (P05186 whole entry)": "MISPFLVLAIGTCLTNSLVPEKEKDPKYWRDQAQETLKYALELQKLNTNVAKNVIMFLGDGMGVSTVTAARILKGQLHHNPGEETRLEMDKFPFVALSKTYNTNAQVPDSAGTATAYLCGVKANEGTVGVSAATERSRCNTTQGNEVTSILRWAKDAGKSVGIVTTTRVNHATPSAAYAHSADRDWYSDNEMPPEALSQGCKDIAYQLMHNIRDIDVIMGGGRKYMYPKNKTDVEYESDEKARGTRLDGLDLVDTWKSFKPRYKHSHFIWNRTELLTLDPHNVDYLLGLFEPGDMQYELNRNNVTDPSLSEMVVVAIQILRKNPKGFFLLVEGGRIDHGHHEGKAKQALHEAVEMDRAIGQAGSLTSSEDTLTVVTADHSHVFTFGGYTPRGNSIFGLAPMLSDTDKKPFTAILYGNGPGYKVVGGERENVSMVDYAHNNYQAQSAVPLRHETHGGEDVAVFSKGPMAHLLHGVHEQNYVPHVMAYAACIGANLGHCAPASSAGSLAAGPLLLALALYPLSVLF", "experiment": "TNAP enzyme activators, dose response, selectivity assay for human IAP activator project, biochemical, TNAP isozyme, human IAP uHTS hits (AID 488886);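 note: potency of compounds raising TNAP activity as a selectivity check on IAP activators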", "assay_type": "functional"}, "Streptokinase A": {"biological_target": "T3, Streptokinase A (Streptococcus pyogenes serotype M1, UniProt P10520)", "T3 sequence (P10520 whole entry)": "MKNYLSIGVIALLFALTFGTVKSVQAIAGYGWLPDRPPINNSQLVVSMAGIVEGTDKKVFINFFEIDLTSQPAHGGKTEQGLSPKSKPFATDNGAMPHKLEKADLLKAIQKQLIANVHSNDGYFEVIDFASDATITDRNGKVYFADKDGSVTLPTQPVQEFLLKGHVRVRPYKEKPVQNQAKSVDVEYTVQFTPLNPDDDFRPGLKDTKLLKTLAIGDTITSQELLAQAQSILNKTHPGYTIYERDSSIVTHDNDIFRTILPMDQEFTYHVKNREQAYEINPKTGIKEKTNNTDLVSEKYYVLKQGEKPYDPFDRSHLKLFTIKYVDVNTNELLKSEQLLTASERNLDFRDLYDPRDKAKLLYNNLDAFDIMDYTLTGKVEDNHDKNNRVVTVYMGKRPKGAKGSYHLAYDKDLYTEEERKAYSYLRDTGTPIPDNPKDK", "experiment": "S. pyogenes streptokinase expression inhibitors, potency, dose response, plasminogen activation absorbance, OD405 (AID 1914);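 note: secreted streptokinase activity via plasminogen activation per viability signal from cell pellet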", "assay_type": "functional, Streptococcus pyogenes M1 GAS"}, "[4]": {"biological_target": "T1, Intestinal-type alkaline phosphatase", "experiment": "human IAP activators, dose response, biochemical, luminescent, uHTS hits, set 2 (AID 488817);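 note: potency of activators that raise enzyme activity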", "assay_type": "functional"}, "[5]": {"biological_target": "Intestinal-type alkaline phosphatase (Mus musculus, UniProt P24822)", "sequence (P24822 whole entry)": "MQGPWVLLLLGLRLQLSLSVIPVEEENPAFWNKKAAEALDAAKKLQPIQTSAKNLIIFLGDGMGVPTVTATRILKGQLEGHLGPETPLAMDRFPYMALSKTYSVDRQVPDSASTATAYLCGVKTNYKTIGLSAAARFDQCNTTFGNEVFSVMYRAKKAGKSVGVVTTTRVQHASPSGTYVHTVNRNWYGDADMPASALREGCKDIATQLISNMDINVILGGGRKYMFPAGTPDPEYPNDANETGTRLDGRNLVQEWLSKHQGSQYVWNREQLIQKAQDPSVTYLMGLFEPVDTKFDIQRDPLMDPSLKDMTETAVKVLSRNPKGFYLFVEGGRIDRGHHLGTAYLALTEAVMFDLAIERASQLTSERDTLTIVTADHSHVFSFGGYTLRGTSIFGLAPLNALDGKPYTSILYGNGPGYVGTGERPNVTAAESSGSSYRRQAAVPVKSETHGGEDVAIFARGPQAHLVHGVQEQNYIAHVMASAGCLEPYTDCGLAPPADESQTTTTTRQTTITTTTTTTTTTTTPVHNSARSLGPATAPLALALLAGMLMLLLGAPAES", "experiment": "PubChem AID 488875", "assay_type": "functional"}, "[6]": {"biological_target": "T4, Mannose-6-phosphate isomerase (Homo sapiens, UniProt P34949)", "T4 sequence (P34949 whole entry)": "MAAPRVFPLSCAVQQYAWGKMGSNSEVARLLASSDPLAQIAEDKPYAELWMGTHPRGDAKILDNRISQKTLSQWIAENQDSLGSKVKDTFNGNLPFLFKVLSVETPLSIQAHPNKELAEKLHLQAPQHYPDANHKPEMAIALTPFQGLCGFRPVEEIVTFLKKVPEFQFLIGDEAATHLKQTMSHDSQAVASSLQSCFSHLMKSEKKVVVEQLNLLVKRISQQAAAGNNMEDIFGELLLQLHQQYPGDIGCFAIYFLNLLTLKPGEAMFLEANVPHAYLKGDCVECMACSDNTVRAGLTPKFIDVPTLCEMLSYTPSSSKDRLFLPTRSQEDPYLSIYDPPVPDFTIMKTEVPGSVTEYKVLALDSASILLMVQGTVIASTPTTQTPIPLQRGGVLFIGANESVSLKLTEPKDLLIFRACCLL", "experiment": "Confirmation of compounds inhibiting phosphomannose isomerase (PMI) via a fluorescence intensity assay using a high concentration of mannose 6-phosphate. [Related pubchem assays (depositor defined):AID1209, AID1220, AID1545, AID1553, AID1620]"}, "Phosphomannomutase 2": {"biological_target": "Phosphomannomutase 2 (Homo sapiens, UniProt O15305)", "sequence (O15305 whole entry)": "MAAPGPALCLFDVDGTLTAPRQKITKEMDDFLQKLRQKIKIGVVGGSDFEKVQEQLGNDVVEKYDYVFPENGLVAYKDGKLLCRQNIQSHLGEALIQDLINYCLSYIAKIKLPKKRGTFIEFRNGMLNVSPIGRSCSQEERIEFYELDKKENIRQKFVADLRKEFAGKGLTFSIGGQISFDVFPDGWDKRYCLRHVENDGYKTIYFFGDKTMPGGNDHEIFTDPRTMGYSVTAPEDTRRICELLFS", "experiment": "Counter screen SAR assay for PMM2 inhibitors via a fluorescence intensity assay. [Related pubchem assays (depositor defined):AID1545, AID1574]"}, "[7]": {"biological_target": "T4, Mannose-6-phosphate isomerase", "experiment": "PMI enzyme inhibitors, confirmation, biochemical, fluorescence intensity (AID 1535)"}, "CAAX prenyl protease 1": {"biological_target": "CAAX prenyl protease 1 (Saccharomyces cerevisiae S288c, UniProt P47154)", "sequence (P47154 whole entry)": "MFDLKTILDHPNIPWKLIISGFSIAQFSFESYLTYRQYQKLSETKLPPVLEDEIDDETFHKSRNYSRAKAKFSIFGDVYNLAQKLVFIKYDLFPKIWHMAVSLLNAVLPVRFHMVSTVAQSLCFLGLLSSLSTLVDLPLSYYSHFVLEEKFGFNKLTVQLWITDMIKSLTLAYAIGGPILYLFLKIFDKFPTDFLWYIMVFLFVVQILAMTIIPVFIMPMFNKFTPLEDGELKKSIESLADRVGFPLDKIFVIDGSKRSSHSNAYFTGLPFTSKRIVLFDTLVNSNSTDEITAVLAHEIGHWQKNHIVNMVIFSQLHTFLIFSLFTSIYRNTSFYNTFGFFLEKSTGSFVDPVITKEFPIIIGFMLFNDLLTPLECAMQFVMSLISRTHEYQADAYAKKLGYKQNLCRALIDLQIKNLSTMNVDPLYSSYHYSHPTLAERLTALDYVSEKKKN", "experiment": "Ste24 protease inhibitors, dose response, biochemical, S. cerevisiae, plate reader, cherry-pick (AID 488815)"}, "Trypsin": {"biological_target": "Trypsin (Sus scrofa, UniProt P00761)", "sequence (P00761 whole entry)": "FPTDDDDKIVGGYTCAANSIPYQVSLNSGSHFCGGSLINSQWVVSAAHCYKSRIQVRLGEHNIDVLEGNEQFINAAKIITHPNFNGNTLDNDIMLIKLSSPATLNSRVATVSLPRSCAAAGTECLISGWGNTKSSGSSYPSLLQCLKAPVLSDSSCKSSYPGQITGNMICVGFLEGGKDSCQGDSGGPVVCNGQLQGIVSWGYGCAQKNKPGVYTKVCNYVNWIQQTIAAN", "experiment": "porcine trypsin inhibitors, dose response, selectivity assay for Rce1 protease inhibitor project, biochemical, quenched peptide fluorescence, cherry-pick (AID 488789)"}, "CAAX prenyl protease 2": {"biological_target": "T5, CAAX prenyl protease 2 (Saccharomyces cerevisiae S288c, UniProt Q03530)", "T5 sequence (Q03530 whole entry)": "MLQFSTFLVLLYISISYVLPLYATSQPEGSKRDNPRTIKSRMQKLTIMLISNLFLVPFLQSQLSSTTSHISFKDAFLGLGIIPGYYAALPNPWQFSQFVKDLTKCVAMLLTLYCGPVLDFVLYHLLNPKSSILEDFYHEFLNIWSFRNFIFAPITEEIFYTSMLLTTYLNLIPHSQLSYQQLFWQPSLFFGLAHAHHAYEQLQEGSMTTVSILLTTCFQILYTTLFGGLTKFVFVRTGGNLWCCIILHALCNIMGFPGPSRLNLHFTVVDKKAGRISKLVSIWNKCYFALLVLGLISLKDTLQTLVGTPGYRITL", "assay_type": "biochemical"}}, "note": "Calls of active or inactive are those of the source.", "data": [{"smiles": "O=C(NCCN1CCC2(CC1)C(=O)NCN2c1ccc(F)c(F)c1)c1cc2cc(F)ccc2[nH]1", "values": [{"measurement": "IC50", "setting": "Phospholipase D2", "value": "0.097 µM (active)"}]}, {"smiles": "COc1ccccc1N1CCN(C(=O)CSc2nc(C)cc(O)n2)CC1", "values": [{"measurement": "AC50", "setting": "[1]", "value": "10.1 µM (active)"}]}, {"smiles": "CCC(NC(=S)NC1CCCCC1)c1ccc(C(C)C)cc1", "note": "(stereo not drawn)", "values": [{"measurement": "EC50", "setting": "[2]", "value": "81.2 µM (active)"}, {"measurement": "EC50", "setting": "[3]", "value": "54.3 µM (active)"}, {"measurement": "EC50", "setting": "Streptokinase A", "value": "43.4 µM (active)"}, {"measurement": "EC50", "setting": "[4]", "value": "52.4 µM (active)"}, {"measurement": "EC50", "setting": "[5]", "value": "60.1 µM (active)"}]}, {"smiles": "COc1ccc2c(=O)n(C3CCCC3)sc2c1", "values": [{"measurement": "IC50", "setting": "[6]", "value": "> 100 µM (inactive)"}, {"measurement": "IC50", "setting": "Phosphomannomutase 2", "value": "> 100 µM (inactive)"}, {"measurement": "IC50", "setting": "[7]", "value": "86.8 µM (active)"}]}, {"smiles": "CCOc1ccc(C2C(C(=O)OC)=CN(C(C)c3ccccc3)C=C2C(=O)OC)cc1", "note": "(stereo not drawn)", "values": [{"measurement": "AC50", "setting": "CAAX prenyl protease 1", "value": "5.08 µM (active)"}, {"measurement": "AC50", "setting": "Trypsin", "value": "5.7 µM (active)"}, {"measurement": "AC50", "setting": "CAAX prenyl protease 2", "value": "> 100 µM (inactive)"}]}]}
